Converted amounts (≈) assume the structure as drawn. Read-outs that look alike come from different tables or passages of the source.
Assays:
Format in all cases: cell-based
E. faecalis ATCC 29212 = assay: MIC against E. faecalis ATCC 29212; details: Enterococcus faecalis, ATCC29212, read-out: MIC
S. aureus ATCC 29213 = assay: MIC against S. aureus ATCC 29213; details: Staphylococcus aureus
K. pneumoniae ATCC 10031 = assay: MIC against K. pneumoniae ATCC 10031; details: Klebsiella pneumoniae, ATCC10031
[1] = system: S. aureus MP-549 msr(a) USA 300; assay: MIC against S. aureus MP-549 msr(a) USA 300; details: Staphylococcus aureus, USA300, S. aureus MP-549 msr(a) USA 300
E. coli ATCC 25922 = assay: MIC against E. coli ATCC 25922; details: Escherichia coli, ATCC25922
S. pyogenes ATCC 19615 = assay: MIC against S. pyogenes ATCC 19615; details: Streptococcus pyogenes, ATCC19615; S. pyogenes ATCC 19615; read-out: MIC
S. pneumoniae ATCC 49619 = assay: MIC against S. pneumoniae ATCC 49619; details: Streptococcus pneumoniae, ATCC49619; S. pneumoniae ATCC 49619; read-out: MIC
E. coli MP-9 ΔTolC = assay: MIC against E. coli MP-9 ΔTolC; details: Escherichia coli
H. influenzae ATCC 49247 = assay: MIC against H. influenzae ATCC 49247; details: Haemophilus influenzae, ATCC49247
[2] = K. pneumoniae ATCC 10031, read-out: MIC
[3] = E. coli ATCC 25922, read-out: MIC
[4] = ATCC29213, S. aureus ATCC 29213, read-out: MIC

Row | MIC (H. influenzae ATCC 49247; H. influenzae ATCC 49247, read-out: MIC) | SMILES | MIC (E. faecalis ATCC 29212) | MIC (S. aureus ATCC 29213; ATCC29213) | MIC (K. pneumoniae ATCC 10031; [2]) | MIC [1] | MIC (E. coli ATCC 25922; [3]) | MIC (S. pyogenes ATCC 19615) | MIC (S. aureus ATCC 29213; [4]) | MIC (S. pneumoniae ATCC 49619) | MIC (E. coli MP-9 ΔTolC) | MIC (E. coli ATCC 25922) | MIC (H. influenzae ATCC 49247) | MIC (K. pneumoniae ATCC 10031)
1 | – | CSC1O[C@H]([C@H](NC(=O)[C@H]2NC[C@@H]3CC(c4ccc(C)cc4)=CCO[C@H]32)[C@H](C)Cl)C(O)[C@@H](O)[C@H]1O (stereo partly drawn) [FSA-511019] | 4 µg/mL (≈ 7.59 µM) | 0.5 µg/mL (≈ 0.949 µM) | > 64 µg/mL | 0.5 µg/mL (≈ 0.949 µM) | > 64 µg/mL | 0.195 µg/mL (≈ 0.37 µM) | – | – | – | – | – | –
2 | – | CCOC(=O)CCN1C[C@@H]2CC=CCO[C@H]2[C@H]1C(=O)N[C@H]([C@H](C)Sc1ccc(-c2cccnc2)cc1)[C@H]1OC(SC)[C@H](O)[C@H](O)C1O (stereo partly drawn) [FSA-214009b] | > 64 µg/mL | – | – | – | > 64 µg/mL | 8 µg/mL (≈ 11.6 µM) | ≥ 64 µg/mL | – | – | – | – | –
3 | – | CSC1O[C@H]([C@H](NC(=O)[C@H]2NC[C@@H]3CC(c4ccc(C#N)cc4)=CCO[C@H]32)[C@H](C)Cl)C(O)[C@@H](O)[C@H]1O (stereo partly drawn) [FSA-511033] | 2 µg/mL (≈ 3.72 µM) | – | – | 1 µg/mL (≈ 1.86 µM) | > 64 µg/mL | ≤ 0.06 µg/mL | 0.5 µg/mL (≈ 0.929 µM) | ≤ 0.06 µg/mL | – | – | – | –
4 | – | CSC1O[C@H]([C@H](NC(=O)[C@H]2NC[C@@H]3C[C@H](c4ccc(C)cc4)CCO[C@H]32)[C@H](C)Cl)C(O)[C@@H](O)[C@H]1O (stereo partly drawn) [FSA-512079c] | 2 µg/mL (≈ 3.78 µM) | 0.5 µg/mL (≈ 0.945 µM) | – | 0.5 µg/mL (≈ 0.945 µM) | > 128 µg/mL | ≤ 0.12 µg/mL | – | – | 8 µg/mL (≈ 15.1 µM) | – | – | –
5 | – | CSC1O[C@H]([C@H](NC(=O)[C@H]2NC[C@@H]3C=C(c4ccc(C)cc4)CCO[C@@H]23)[C@H](C)Cl)C(O)[C@@H](O)[C@H]1O (stereo partly drawn) [FSA-512075] | 2 µg/mL (≈ 3.79 µM) | – | – | – | > 256 µg/mL | – | 0.5 µg/mL (≈ 0.949 µM) | – | – | – | – | –
6 | – | CSC1O[C@H]([C@H](NC(=O)[C@H]2NC[C@@H]3C=C(C#Cc4cccc(F)c4)CCO[C@@H]23)[C@H](C)Cl)C(O)[C@@H](O)[C@H]1O (stereo partly drawn) [FSA-510003] | 1 µg/mL (≈ 1.8 µM) | – | – | – | – | – | 0.5 µg/mL (≈ 0.901 µM) | – | > 64 µg/mL | > 64 µg/mL | – | –
7 | – | CSC1O[C@H]([C@H](NC(=O)[C@H]2NC[C@@H]3C[C@@H](c4ccc(C)cc4)CCO[C@H]32)[C@H](C)Cl)C(O)[C@@H](O)[C@H]1O (stereo partly drawn) [FSA-512079b] | 1 µg/mL (≈ 1.89 µM) | 0.5 µg/mL (≈ 0.945 µM) | – | 0.5 µg/mL (≈ 0.945 µM) | > 128 µg/mL | ≤ 0.12 µg/mL | – | – | 8 µg/mL (≈ 15.1 µM) | – | – | –
8 | – | CSC1O[C@H]([C@H](NC(=O)[C@H]2NC[C@@H]3C=C(C#Cc4ccccc4)CCO[C@@H]23)[C@H](C)Cl)C(O)[C@@H](O)[C@H]1O (stereo partly drawn) [FSA-510002] | 2 µg/mL (≈ 3.72 µM) | – | – | – | – | – | 0.5 µg/mL (≈ 0.931 µM) | – | > 64 µg/mL | > 64 µg/mL | – | –
9 | – | COc1ccc(C2=CCO[C@@H]3[C@H](CN[C@@H]3C(=O)N[C@H]([C@H](C)Cl)[C@H]3OC(SC)[C@H](O)[C@H](O)C3O)C2)cc1 (stereo partly drawn) [FSA-511020] | 4 µg/mL (≈ 7.37 µM) | – | > 64 µg/mL | 1 µg/mL (≈ 1.84 µM) | > 64 µg/mL | ≤ 0.06 µg/mL | 0.5 µg/mL (≈ 0.921 µM) | ≤ 0.06 µg/mL | – | – | – | –
10 | – | CSC1O[C@H]([C@H](NC(=O)[C@H]2NC[C@@H]3CC(c4cccc5cnccc45)=CCO[C@H]32)[C@H](C)Cl)C(O)[C@@H](O)[C@H]1O (stereo partly drawn) [FSA-510006] | – | – | – | – | – | 0.5 µg/mL (≈ 0.886 µM) | 8 µg/mL (≈ 14.2 µM) | 1 µg/mL (≈ 1.77 µM) | > 64 µg/mL | > 64 µg/mL | > 64 µg/mL | > 64 µg/mL
11 | 37 µg/mL (≈ 67.9 µM) | COc1ccc([C@@H]2CCO[C@@H]3[C@H](CN[C@@H]3C(=O)N[C@H]([C@H](C)Cl)[C@H]3OC(SC)[C@H](O)[C@H](O)C3O)C2)cc1 (stereo partly drawn) [FSA-512080c] | – | – | – | – | – | – | – | – | – | – | – | –

From patent US20220073554A1, “LINCOSAMIDE ANTIBIOTICS AND USES THEREOF” (President and Fellows of Harvard College, priority 2017, published 2022)
